Results published in paper PMC7199333, “Efficacy and safety of lanreotide autogel compared with lanreotide 40 mg prolonged release in Chinese patients with active acromegaly: results from a phase 3, prospective, randomized, and open-label study (LANTERN)” (BMC Endocrine Disorders, 2020).

Assays:
[1] = Serum lanreotide pharmacokinetics (non-compartmental); format: in vivo, human; conditions: lanreotide autogel; fourth titrated dose 120 mg normalized to 90 mg vs first dose of 90 mg; PK subgroup
Procedure: Lanreotide autogel – pre-dose serum samples were taken at weeks 1, 13, 17, and 29; sampling around 4 h after treatment at weeks 13 and 17 and at the end of study (Week 33)/early withdrawal visit. For a subset of patients in the PK subgroup, additional samples were taken during the study and during the PK extension phase: after the first administration of 90 mg at Week 1 (1, 4, 6, 8, 12, 24, and 72 h), Week 2 (168 h), Week 3 (336 h), Week 4 (504 h) and prior to the next administration at Week 5 (672 h); after the fourth (last) administration of the titrated dose at Week 29 (1, 4, 6, 8, 12, 24, and 72 h), Week 30 (168 h), Week 31 (336 h), Week 32 (504 h), and at Week 37 (1344 h) and Week 41 (2016 h).
Lanreotide 40 mg PR – pre-dose serum samples were taken at weeks 1, 2, 13, 16, and at the end-of-study/early withdrawal visit (all taken shortly before treatment) for all patients.
PK endpoints included trough lanreotide concentrations (Ctrough i.e. observed serum concentration at the end of the dosing interval) prior to the fourth, fifth and eighth administrations and at the end-of-study treatment visit with lanreotide autogel, and prior to the second, tenth and twelfth administrations and at the end-of-study visit with lanreotide 40 mg PR. Following a similar approach as reported by Bronstein and colleagues, a non-compartmental PK analysis was performed for the lanreotide autogel PK subgroup to provide individual PK parameters over a 4-week dosing interval after the first and last administration of study drug (i.e. steady state): maximum plasma concentration (Cmax), time to maximum plasma concentration (tmax), area under the concentration–time curve over a 4-week dosing interval (AUCtau), Ctrough and elimination t½ [19].
Additional parameters were estimated, comparing lanreotide PK after Week 1 and Week 29 after normalization to a dose of 90 mg: accumulation ratio for Ctrough (Rtrough) = Ctrough,Week 29/Ctrough,Week 1; accumulation ratio for Cmax (Rmax) = Cmax,Week 29/Cmax,Week 1; accumulation ratio for AUCtau (RAUC) = AUCtau, Week 29/AUCtau, Week 1.

[2] = system: human somatostatin receptor 2; parameters: method as in PMID 7988476; conditions: selective somatostatin receptor subtype agonist; cited from earlier work
[3] = cited from earlier work
Source text: Somatostatin analogs (SSAs) are the preferred type of medical therapy used to reduce GH secretion. Patients who have persistent disease following surgical resection are recommended treatment with the first-generation long acting SSAs, octreotide long-acting release (LAR) or lanreotide autogel. Lanreotide is a synthetic octapeptide analog of natural somatostatin with a longer half-life (t½) than the native molecule, and a selective somatostatin receptor subtype agonist with a high affinity for human somatostatin receptors 2 and 5 [5], which are commonly expressed at both the mRNA [6] ... || Steady-state PK was achieved after the administration of four lanreotide autogel doses. […] Similarly, Bronstein and colleagues reported a steady state Cmin (equivalent to Ctrough) of 3.76 ng/mL [19].

[4] = system: human somatostatin receptor 5; parameters: method as in PMID 7988476; conditions: selective somatostatin receptor subtype agonist; cited from earlier work

CC(C)[C@@H]1NC(=O)[C@H](CCCCN)NC(=O)[C@@H](Cc2c[nH]c3ccccc23)NC(=O)[C@H](Cc2ccc(O)cc2)NC(=O)[C@@H](NC(=O)[C@H](N)Cc2ccc3ccccc3c2)CSSC[C@@H](C(=O)N[C@H](C(N)=O)[C@@H](C)O)NC1=O [lanreotide]
Mean RAUC (accumulation ratio for AUCtau, Week 29/Week 1) [1]: 2.33
Mean Rmax (accumulation ratio for Cmax, Week 29/Week 1) [1]: 1.40
Mean Rtrough (accumulation ratio for Ctrough, Week 29/Week 1) [1]: 2.62
Affinity for human somatostatin receptor 2 [2]: high affinity
Half-life (t½) compared with the native molecule (natural somatostatin) [3]: longer
Affinity for human somatostatin receptor 5 [4]: high affinity
